The NIST ThermoML archive (doi:10.1016/j.jct.2004.12.008)

Assay: xn = mol fraction of the nth substance listed
Details: 101 kPa, Liquid

O=[N+]([O-])c1ccccc1 [nitrobenzene] + CCc1ccccc1
Details | mass density [kg/m3]
293.15 K, x2 = 0 | 1202.95
293.15 K, x2 = 0.0478 | 1184.56
293.15 K, x2 = 0.1275 | 1154.51
293.15 K, x2 = 0.1842 | 1133.58
293.15 K, x2 = 0.2576 | 1107.04
293.15 K, x2 = 0.3238 | 1083.6
293.15 K, x2 = 0.4023 | 1056.42
293.15 K, x2 = 0.4578 | 1037.57
293.15 K, x2 = 0.5139 | 1018.83
293.15 K, x2 = 0.5813 | 996.7
293.15 K, x2 = 0.6423 | 977.03
293.15 K, x2 = 0.6931 | 960.9
293.15 K, x2 = 0.7592 | 940.24
293.15 K, x2 = 0.8343 | 917.18
293.15 K, x2 = 0.8824 | 902.65
293.15 K, x2 = 0.9587 | 879.94
303.15 K, x2 = 0 | 1193.56
303.15 K, x2 = 0.054 | 1172.67
303.15 K, x2 = 0.1213 | 1147.16
303.15 K, x2 = 0.1983 | 1118.67
303.15 K, x2 = 0.2489 | 1100.34
303.15 K, x2 = 0.3138 | 1077.25
303.15 K, x2 = 0.3854 | 1052.32
303.15 K, x2 = 0.4428 | 1032.74
303.15 K, x2 = 0.5098 | 1010.3
303.15 K, x2 = 0.5721 | 989.85
303.15 K, x2 = 0.6219 | 973.76
303.15 K, x2 = 0.6839 | 954.06
303.15 K, x2 = 0.7429 | 935.62
303.15 K, x2 = 0.8013 | 917.67
303.15 K, x2 = 0.8632 | 898.94
303.15 K, x2 = 0.9328 | 878.24
313.15 K, x2 = 0 | 1183.37
313.15 K, x2 = 0.0538 | 1162.71
313.15 K, x2 = 0.1387 | 1130.89
313.15 K, x2 = 0.1932 | 1110.93
313.15 K, x2 = 0.2378 | 1094.87
313.15 K, x2 = 0.2947 | 1074.72
313.15 K, x2 = 0.3571 | 1053.04
313.15 K, x2 = 0.4139 | 1033.68
313.15 K, x2 = 0.4917 | 1007.73
313.15 K, x2 = 0.5523 | 987.93
313.15 K, x2 = 0.6139 | 968.18
313.15 K, x2 = 0.6731 | 949.53
313.15 K, x2 = 0.7248 | 933.5
313.15 K, x2 = 0.7932 | 912.63
313.15 K, x2 = 0.8536 | 894.54
313.15 K, x2 = 0.9248 | 873.58
323.15 K, x2 = 0 | 1172.38
323.15 K, x2 = 0.0617 | 1149.22
323.15 K, x2 = 0.1482 | 1117.58
323.15 K, x2 = 0.2213 | 1091.54
323.15 K, x2 = 0.2787 | 1071.53
323.15 K, x2 = 0.3234 | 1056.2
323.15 K, x2 = 0.3781 | 1037.74
323.15 K, x2 = 0.4344 | 1019.07
323.15 K, x2 = 0.4822 | 1003.47
323.15 K, x2 = 0.5339 | 986.86
323.15 K, x2 = 0.592 | 968.49
323.15 K, x2 = 0.6739 | 943.12
323.15 K, x2 = 0.7429 | 922.2
323.15 K, x2 = 0.8137 | 901.15
323.15 K, x2 = 0.8735 | 883.68
323.15 K, x2 = 0.9572 | 859.66
333.15 K, x2 = 0 | 1160.59
333.15 K, x2 = 0.0439 | 1144.65
333.15 K, x2 = 0.1249 | 1115.84
333.15 K, x2 = 0.1892 | 1093.51
333.15 K, x2 = 0.2599 | 1069.48
333.15 K, x2 = 0.3389 | 1043.25
333.15 K, x2 = 0.4042 | 1022.06
333.15 K, x2 = 0.4672 | 1002.01
333.15 K, x2 = 0.5243 | 984.15
333.15 K, x2 = 0.5902 | 963.91
333.15 K, x2 = 0.6645 | 941.54
333.15 K, x2 = 0.7309 | 921.93
333.15 K, x2 = 0.8021 | 901.28
333.15 K, x2 = 0.8623 | 884.12
333.15 K, x2 = 0.8932 | 875.4
333.15 K, x2 = 0.9621 | 856.21
343.15 K, x2 = 0 | 1148
343.15 K, x2 = 0.0535 | 1129.57
343.15 K, x2 = 0.1122 | 1109.7
343.15 K, x2 = 0.1834 | 1086.08
343.15 K, x2 = 0.2478 | 1065.16
343.15 K, x2 = 0.3044 | 1047.11
343.15 K, x2 = 0.3782 | 1024
343.15 K, x2 = 0.4519 | 1001.42
343.15 K, x2 = 0.513 | 983.04
343.15 K, x2 = 0.5801 | 963.22
343.15 K, x2 = 0.6529 | 942.11
343.15 K, x2 = 0.7238 | 921.93
343.15 K, x2 = 0.7932 | 902.5
343.15 K, x2 = 0.852 | 886.31
343.15 K, x2 = 0.8932 | 875.09
343.15 K, x2 = 0.9423 | 861.85
353.15 K, x2 = 0 | 1134.61
353.15 K, x2 = 0.0723 | 1111.4
353.15 K, x2 = 0.1298 | 1093.3
353.15 K, x2 = 0.1984 | 1072.07
353.15 K, x2 = 0.2584 | 1053.83
353.15 K, x2 = 0.3133 | 1037.4
353.15 K, x2 = 0.3891 | 1015.12
353.15 K, x2 = 0.4501 | 997.51
353.15 K, x2 = 0.524 | 976.53
353.15 K, x2 = 0.5818 | 960.38
353.15 K, x2 = 0.663 | 938.08
353.15 K, x2 = 0.7483 | 915.1
353.15 K, x2 = 0.7964 | 902.32
353.15 K, x2 = 0.8423 | 890.26
353.15 K, x2 = 0.8893 | 878.02
353.15 K, x2 = 0.9529 | 861.65

O=[N+]([O-])c1ccccc1 [nitrobenzene] + Cc1ccc(C)cc1
Details | mass density [kg/m3]
293.15 K, x2 = 0 | 1202.95
293.15 K, x2 = 0.0587 | 1179.74
293.15 K, x2 = 0.1232 | 1154.82
293.15 K, x2 = 0.1933 | 1128.38
293.15 K, x2 = 0.2516 | 1106.86
293.15 K, x2 = 0.3298 | 1078.63
293.15 K, x2 = 0.3891 | 1057.67
293.15 K, x2 = 0.4423 | 1039.19
293.15 K, x2 = 0.4983 | 1020.04
293.15 K, x2 = 0.5512 | 1002.23
293.15 K, x2 = 0.6242 | 978.08
293.15 K, x2 = 0.6943 | 955.34
293.15 K, x2 = 0.7523 | 936.85
293.15 K, x2 = 0.8211 | 915.28
293.15 K, x2 = 0.8723 | 899.49
293.15 K, x2 = 0.9421 | 878.29
303.15 K, x2 = 0 | 1193.56
303.15 K, x2 = 0.0623 | 1168.84
303.15 K, x2 = 0.1123 | 1149.43
303.15 K, x2 = 0.1823 | 1122.85
303.15 K, x2 = 0.2429 | 1100.38
303.15 K, x2 = 0.3189 | 1072.84
303.15 K, x2 = 0.3894 | 1047.9
303.15 K, x2 = 0.4376 | 1031.16
303.15 K, x2 = 0.4889 | 1013.63
303.15 K, x2 = 0.5321 | 999.06
303.15 K, x2 = 0.6078 | 973.98
303.15 K, x2 = 0.6731 | 952.79
303.15 K, x2 = 0.7561 | 926.4
303.15 K, x2 = 0.8247 | 905.05
303.15 K, x2 = 0.8871 | 885.97
303.15 K, x2 = 0.9316 | 872.57
313.15 K, x2 = 0 | 1183.36
313.15 K, x2 = 0.0598 | 1159.6
313.15 K, x2 = 0.1342 | 1130.81
313.15 K, x2 = 0.1732 | 1116.05
313.15 K, x2 = 0.2311 | 1094.53
313.15 K, x2 = 0.3239 | 1060.94
313.15 K, x2 = 0.3971 | 1035.18
313.15 K, x2 = 0.4576 | 1014.35
313.15 K, x2 = 0.514 | 995.29
313.15 K, x2 = 0.5672 | 977.61
313.15 K, x2 = 0.6234 | 959.24
313.15 K, x2 = 0.6831 | 940.06
313.15 K, x2 = 0.7421 | 921.43
313.15 K, x2 = 0.7901 | 906.5
313.15 K, x2 = 0.8611 | 884.8
313.15 K, x2 = 0.9287 | 864.54
323.15 K, x2 = 0 | 1172.38
323.15 K, x2 = 0.048 | 1153.29
323.15 K, x2 = 0.1243 | 1123.72
323.15 K, x2 = 0.1892 | 1099.28
323.15 K, x2 = 0.2572 | 1074.3
323.15 K, x2 = 0.3249 | 1050.03
323.15 K, x2 = 0.4023 | 1022.99
323.15 K, x2 = 0.4683 | 1000.47
323.15 K, x2 = 0.5138 | 985.24
323.15 K, x2 = 0.5871 | 961.14
323.15 K, x2 = 0.6422 | 943.39
323.15 K, x2 = 0.7139 | 920.72
323.15 K, x2 = 0.7811 | 899.92
323.15 K, x2 = 0.8428 | 881.17
323.15 K, x2 = 0.8781 | 870.6
323.15 K, x2 = 0.9424 | 851.62
333.15 K, x2 = 0 | 1160.59
333.15 K, x2 = 0.0668 | 1134.27
333.15 K, x2 = 0.1235 | 1112.51
333.15 K, x2 = 0.1983 | 1084.57
333.15 K, x2 = 0.2547 | 1064.03
333.15 K, x2 = 0.3133 | 1043.14
333.15 K, x2 = 0.3942 | 1015.02
333.15 K, x2 = 0.4789 | 986.4
333.15 K, x2 = 0.5287 | 969.96
333.15 K, x2 = 0.5902 | 950.01
333.15 K, x2 = 0.6517 | 930.44
333.15 K, x2 = 0.7244 | 907.78
333.15 K, x2 = 0.7923 | 887.08
333.15 K, x2 = 0.8321 | 875.13
333.15 K, x2 = 0.8832 | 860
333.15 K, x2 = 0.9329 | 845.51
343.15 K, x2 = 0 | 1147.99
343.15 K, x2 = 0.0623 | 1123.65
343.15 K, x2 = 0.1324 | 1097.02
343.15 K, x2 = 0.1824 | 1078.5
343.15 K, x2 = 0.2561 | 1051.86
343.15 K, x2 = 0.3249 | 1027.65
343.15 K, x2 = 0.3867 | 1006.43
343.15 K, x2 = 0.4562 | 983.11
343.15 K, x2 = 0.5139 | 964.17
343.15 K, x2 = 0.5719 | 945.49
343.15 K, x2 = 0.6317 | 926.6
343.15 K, x2 = 0.691 | 908.21
343.15 K, x2 = 0.7613 | 886.86
343.15 K, x2 = 0.8312 | 866.07
343.15 K, x2 = 0.8931 | 848.03
343.15 K, x2 = 0.9537 | 830.69
353.15 K, x2 = 0 | 1134.61
353.15 K, x2 = 0.0479 | 1116.05
353.15 K, x2 = 0.1123 | 1091.72
353.15 K, x2 = 0.1742 | 1068.95
353.15 K, x2 = 0.2498 | 1041.91
353.15 K, x2 = 0.3013 | 1023.94
353.15 K, x2 = 0.3781 | 997.79
353.15 K, x2 = 0.4538 | 972.7
353.15 K, x2 = 0.5247 | 949.8
353.15 K, x2 = 0.6149 | 921.44
353.15 K, x2 = 0.662 | 906.96
353.15 K, x2 = 0.7137 | 891.32
353.15 K, x2 = 0.7832 | 870.68
353.15 K, x2 = 0.8312 | 856.69
353.15 K, x2 = 0.8813 | 842.3
353.15 K, x2 = 0.9422 | 825.1
